Test results from patent US20240307415A1, “STEROID COMPOUND, AND PHARMACEUTICAL COMPOSITION THEREOF AND USE THEREOF” (JIANGSU SIMCERE PHARMACEUTICAL CO., LTD., priority 2021, published 2024).
pEC50: −log10 of the molar value. Read-outs that look alike come from different tables or passages of the source.

Columns and labels:
[1] = tested on: K562-GRE reporter gene; assay: K562-GRE reporter gene activity; assay type: cell-based; conditions: read-out: K562-GRE Reporter EC50
Description: To generate the parental K562-GRE cell line, K562 cells were seeded at 5×10^5 cells/well onto a 6-well plate (brand: Costar, Cat. No: 3516) containing 2 mL of complete medium (RPM1640, 10% FBS, penicillin-streptomycin) and cultured at 37° C. with 5% CO2 for 24 h. The next day, 3 μg of pNL2.2[NLucP/MMTV/Hygro-NANO] (Promega) and 3 μL of PLUS reagent (brand: Invitrogen, Cat. No: 11514-015) were diluted in 150 μL of Opti-MEM (brand: Gibco, Cat. No: 11058021) and incubated at room temperature for 5 min. The pNL2.2[NLucP/MMTV/Hygro-NANO] vector contains MMTV LTR (mouse mammary tumor virus long terminal repeat), which drives transcription of the luciferase reporter gene NanoLuc in response to activation of several nuclear receptors (e.g. glucocorticoid receptor and androgen receptor). After incubation, the diluted DNA solution was mixed with Lipofectamine LTX solution (brand: Invitrogen, Cat. No: 15338-100) (6 μL of Lipofectamine LTX+144 μL of Opti-MEM) in a 1:1 ratio, pre-incubated, and incubated at room temperature for 15 min to form a DNA-Lipofectamine LTX complex. After incubation, 300 μL of the DNA-Lipofectamine complex was added directly to the cell wells. The K562 cells were transfected at 37° C. with 5% CO2 for 24 h. After transfection, the cells were washed with 3 mL of PBS and selectively grown for two weeks with complete growth medium containing 125 μg/mL hygromycin B (brand: Invitrogen, Cat. No: 10687010). “K562-GRE (pNL2.2[NLucP/MMTV/Hygro-NANO])” cells were generated.
After mixing, the cells were cultured in an incubator at 37° C. for 24 h. After 24 h of incubation, an equal volume of 100 μL of Nano-Glo luciferase assay system (brand: Promega, Cat. No: N1120) was added to the cells, the mixture was reacted in a shaker at […] for 10 min, and the chemiluminescence values were detected using the PHERAstar instrument. The antibody binding curves were plotted using the logarithmic value of the antibody concentration as the abscissa and the corresponding chemiluminescence reading as the ordinate, and the EC50 value was calculated by four-parameter fitting (GraphPad Prism9).

[2] = molecular target: Glucocorticoid Receptor GR (Homo sapiens (Human), UniProt P04150); assay: Binding activity to glucocorticoid receptor GR (Polarscreen fluorescence polarization kit); conditions: GR full length, 2 h
Description: The binding activity of the compound to GR was determined using the Polarscreen Glucocorticoid Receptor Assay Kit, Red (brand: Thermo, Cat. No: A15898). […] The highest concentration was 100 μM, 8 concentrations in total. […] With the log value of the final concentration of the compound as the X axis and the mP value as the Y axis, data was input into the processing software Graphpad Prism 9, and the EC50 value was calculated by four-parameter fitting

[3] = tested on: CHS mouse model; assay: Efficacy test in CHS mouse model (FITC sensitization, right ear thickness); assay type: in vivo, C57BL/6N mice; conditions: 3 μg/mouse
Description: Construction of CHS mouse model: 6- to 8-week-old female C57BL/6N mice (Beijing Vital River Laboratory Animal Technology Co., Ltd.) were selected, and all mice were shaved off abdominal hair using a small animal hair clipper. 400 μL of the sensitizer was pipetted with a micropipette and applied evenly to the abdomen of the mice for epidermal sensitization. After application, the mice were held for 3-5 s and the solvent was allowed to evaporate from the skin as clean as possible. The specific preparation method for the sensitizer was: 0.5 g of FITC (fluorescein isothiocyanate; sigma-Aldrich) powder was weighed and fully dissolved in a solvent of 50 mL of acetone (SinoPharm reagent) and 50 mL of DBP (dibutyl phthalate; sigma-Aldrich) in equal proportion to give the sensitizer with the FITC content of 0.5%. On the 6th day after sensitization, the thickness of the right ear of the mice was measured with a dial thickness gauge as a baseline value, then a freshly prepared sensitizer was pipetted with a micropipette and applied evenly inside and outside of the right ear of the mice respectively for epidermal stimulation, and 10 μL of the sensitizer was applied on each side. 24 h after stimulation, the thickness of the right ear of the mice was measured again with a dial thickness gauge to obtain the thickness change of the right ear of the mice, A thickness of right ear=(thickness of right ear 24 h after stimulation)−(baseline value of thickness of right ear).
Therapeutic regimen for CHS model mouse: mice were divided into a blank group, a negative control group, a positive control group, and an experimental group. […] The drug was administered by one-time intraperitoneal injection 1 h before the right ear epidermal stimulation.

[4] = K562-GRE cells, 24 h incubation, NanoLuc luciferase

Glucocorticoid Receptor GR, sequence (P04150 whole entry): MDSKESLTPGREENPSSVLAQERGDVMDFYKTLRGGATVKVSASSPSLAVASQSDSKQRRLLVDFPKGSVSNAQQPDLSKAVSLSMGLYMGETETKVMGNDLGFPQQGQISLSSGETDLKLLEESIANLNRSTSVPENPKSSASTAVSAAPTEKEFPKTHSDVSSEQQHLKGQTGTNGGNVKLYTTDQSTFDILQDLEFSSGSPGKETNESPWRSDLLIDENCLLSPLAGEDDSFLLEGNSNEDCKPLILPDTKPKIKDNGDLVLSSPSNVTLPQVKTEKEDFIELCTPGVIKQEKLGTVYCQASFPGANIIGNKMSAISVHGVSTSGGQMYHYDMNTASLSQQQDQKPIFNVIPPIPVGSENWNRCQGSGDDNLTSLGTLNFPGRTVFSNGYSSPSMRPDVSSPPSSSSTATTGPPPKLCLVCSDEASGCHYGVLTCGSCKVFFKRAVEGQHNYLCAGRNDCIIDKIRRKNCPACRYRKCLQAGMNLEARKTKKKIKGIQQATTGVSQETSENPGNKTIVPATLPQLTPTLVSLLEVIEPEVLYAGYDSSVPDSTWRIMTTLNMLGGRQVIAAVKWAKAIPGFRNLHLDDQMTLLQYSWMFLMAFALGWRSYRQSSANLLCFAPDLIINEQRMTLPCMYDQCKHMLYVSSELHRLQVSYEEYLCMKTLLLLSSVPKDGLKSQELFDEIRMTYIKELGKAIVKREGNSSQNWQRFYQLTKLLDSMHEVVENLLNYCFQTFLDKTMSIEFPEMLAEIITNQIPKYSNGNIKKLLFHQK

C[C@]12C=CC(=O)C=C1[C@@H](F)C[C@H]1[C@@H]3C[C@H]4O[C@@H](c5ccc(Cc6ccc7c(c6)OCCN7)cc5)O[C@@]4(C(=O)CO)[C@@]3(C)C[C@H](O)[C@@]12F [Compound 006, (2S,6aS,6bR,7S,8aS,8bS,10R,11aR,12aS,12bS)-10-(4-((3,4-dihydro-2H-benzo[b][1,4]oxazin-7-yl)methyl)phenyl)-2,6b-difluoro-7-hydroxy-8b-(2-hydroxyacetyl)-6a,8a-dimethyl-6a,6b,7,8,8a,8b,11a,12,12a,12b-decahydro-1H-naphtho[2′,1′:4,5]indeno[1,2-d][1,3]dioxolan-4(2H)-one]
pEC50 ([1]; 24 h): 8.77

C[C@]12C=CC(=O)C=C1[C@@H](F)C[C@H]1[C@@H]3C[C@H]4O[C@@H](c5ccc(Cc6ccc(N)c7c6CCO7)cc5)O[C@@]4(C(=O)CO)[C@@]3(C)C[C@H](O)[C@@]12F [Compound 010, (2S,6aS,6bR,7S,8aS,8bS,10R,11aR,12aS,12bS)-10-(4-((7-amino-2,3-dihydrobenzofuran-4-yl)methyl)phenyl)-2,6b-difluoro-7-hydroxy-8b-(2-hydroxyacetyl)-6a,8a-dimethyl-6a,6b,7,8,8a,8b,11a,12,12a,12b-decahydro-1H-naphtho[2′,1′:4,5]indeno[1,2-d][1,3]dioxolan-4(2H)-one]
pEC50 ([1]; 24 h): 8.97

CC12C=CC(=O)C=C1CCC1C2C(O)CC2(C)C1CC1OC(c3ccc(Cc4cc(N)cc5c4CCO5)cc3)OC12C(=O)CO [Compound 012, (6aR,6bS,7S,8aS,8bS,10R,11aR,12aS,12bS)-10-(4-((6-amino-2,3-dihydrobenzofuran-4-yl)methyl)phenyl)-7-hydroxy-8b-(2-hydroxyacetyl)-6a,8a-dimethyl-6a,6b,7,8,8a,8b,11a,12,12a,12b-decahydro-1H-naphtho[2′,1′:4,5]indeno[1,2-d][1,3]dioxolan-4(2H)-one]
pEC50 [1, 4]: 8.02

C[C@]12C=CC(=O)C=C1CC[C@@H]1[C@@H]2[C@@H](O)C[C@@]2(C)[C@H]1C[C@H]1O[C@@H](c3ccc(Cc4ccc(N)c5ncoc45)cc3)O[C@]12C(=O)CO [Compound 007, (6aR,6bS,7S,8aS,8bS,10R,11aR,12aS,12bS)-10-(4-((4-aminobenzo[d]oxazol-7-yl)methyl)phenyl)-7-hydroxy-8b-(2-hydroxyacetyl)-6a,8a-dimethyl-6a,6b,7,8,8a,8b,11a,12,12a,12b-decahydro-1H-naphtho[2′,1′:4,5]indeno[1,2d][1,3]dioxolan-4(2H)-one]
pEC50 ([1]; 24 h): 8.68 | pEC50 [2]: 7.77

C[C@]12C=CC(=O)C=C1CC[C@@H]1[C@@H]2[C@@H](O)C[C@@]2(C)[C@H]1C[C@H]1O[C@@H](c3ccc(Cc4ccc(N)c5c4CCO5)cc3)O[C@]12C(=O)CO [Compound 001, (6aR,6bS,7S,8aS,8bS,10R,11aR,12aS,12bS)-10-(4-((7-amino-2,3-dihydrobenzofuran-4-yl)methyl)phenyl)-7-hydroxy-8b-(2-hydroxyacetyl)-6a,8a-dimethyl-6a,6b,7,8,8a,8b,11a,12,12a,12b-decahydro-1H-naphtho[2′,1′:4,5]indeno[1,2-d][1,3]dioxolan-4(2H)-one]
thickness of the right ear in CHS mice compared to the negative control group ([3]; one-time intraperitoneal injection 1 h before right ear stimulation, measured 24 h after stimulation): significant decrease | efficacy compared with positive reference compound a at the same dose ([3]; one-time intraperitoneal injection, CHS mice, right ear thickness): superior in efficacy to the positive reference compound a | pEC50 ([1]; 24 h): 8.46 | pEC50 [2]: 7.88

C[C@]12C=CC(=O)C=C1CC[C@@H]1[C@@H]2[C@@H](O)C[C@@]2(C)[C@H]1C[C@H]1O[C@@H](c3ccc(Cc4ccc5c(c4)NCC5)cc3)O[C@]12C(=O)CO [Compound 004, (6aR,6bS,7S,8aS,8bS,10R,11aR,12aS,12bS)-7-hydroxy-8b-(2-hydroxyacetyl)-10-(4-(indolin-6-ylmethyl)phenyl)-6a,8a-dimethyl-6a,6b,7,8,8a,8b,11a,12,12a,12b-decahydro-1H-naphtho[2′,1′:4,5]indeno[1,2-d][1,3]dioxolan-4(2H)-one]
pEC50 ([1]; 24 h): 8.12 | pEC50 [2]: 7.37

C[C@]12C=CC(=O)C=C1CC[C@@H]1[C@@H]2[C@@H](O)C[C@@]2(C)[C@H]1C[C@H]1O[C@@H](c3ccc(Cc4ccc5nc[nH]c5c4)cc3)O[C@]12C(=O)CO [Compound 002, (6aR,6bS,7S,8aS,8bS,10R,11aR,12aS,12bS)-10-(4-((1H-benzo[d]imidazol-6-yl)methyl)phenyl)-7-hydroxy-8b-(2-hydroxyacetyl)-6a,8a-dimethyl-6a,6b,7,8,8a,8b,11a,12,12a,12b-decahydro-1H-naphtho[2′,1′:4,5]indeno[1,2-d][1,3]dioxolan-4(2H)-one]
pEC50 [1, 4]: 8.05

C[C@]12C=CC(=O)C=C1CC[C@@H]1[C@@H]2[C@@H](O)C[C@@]2(C)[C@H]1C[C@H]1O[C@@H](c3ccc(Cc4ccc5cc[nH]c5c4)cc3)O[C@]12C(=O)CO [Compound 003, (6aR,6bS,7S,8aS,8bS,10R,11aR,12aS,12bS)-10-(4-((1H-indol-6-yl)methyl)phenyl)-7-hydroxy-8b-(2-hydroxyacetyl)-6a,8a-dimethyl-6a,6b,7,8,8a,8b,11a,12,12a,12b-decahydro-1H-naphtho[2′,1′:4,5]indeno[1,2-d][1,3]dioxolan-4(2H)-one]
pEC50 [1, 4]: 8.42

C[C@]12C=CC(=O)C=C1CC[C@@H]1[C@@H]2[C@@H](O)C[C@@]2(C)[C@H]1C[C@H]1O[C@@H](c3ccc(Cc4ccc(N)c5c4CCC5)cc3)O[C@]12C(=O)CO [Compound 011, (6aR,6bS,7S,8aS,8bS,10R,11aR,12aS,12bS)-10-(4-((7-amino-2,3-dihydro-1H-inden-4-yl)methyl)phenyl)-7-hydroxy-8b-(2-hydroxyacetyl)-6a,8a-dimethyl-6a,6b,7,8,8a,8b,11a,12,12a,12b-decahydro-1H-naphtho[2′,1′:4,5]indeno[1,2-d][1,3]dioxolan-4(2H)-one]
pEC50 [1, 4]: 8.37

C[C@]12C=CC(=O)C=C1CC[C@@H]1[C@@H]2[C@@H](O)C[C@@]2(C)[C@H]1C[C@H]1O[C@@H](c3ccc(Cc4ccc5c(c4)OCCN5)cc3)O[C@]12C(=O)CO [Compound 005, (6aR,6bS,7S,8aS,8bS,10R,11aR,12aS,12bS)-10-(4-((3,4-dihydro-2H-benzo[b][1,4]oxazin-7-yl)methyl)phenyl)-7-hydroxy-8b-(2-hydroxyacetyl)-6a,8a-dimethyl-1,2,6a,6b,7,8,8a,8b,11a,12,12a,12b-decahydro-1H-naphtho[2′,1′:4,5]indeno[1,2-d][1,3]dioxolan-4(2H)-one]
pEC50 [1, 4]: 8.25

C[C@]12C=CC(=O)C=C1CC[C@@H]1[C@@H]2[C@@H](O)C[C@@]2(C)[C@H]1C[C@H]1O[C@@H](c3ccc(Cc4ccc(N)c5c4OCO5)cc3)O[C@]12C(=O)CO [Compound 008, (6aR,6bS,7S,8aS,8bS,10R,11 aR,12aS,12bS)-10-(4-((7-aminobenzo[d][1,3]dioxolan-4-yl)methyl)phenyl)-7-hydroxy-8b-(2-hydroxyacetyl)-6a,8a-dimethyl-6a,6b,7,8,8a,8b,11a,12,12a,12b-decahydro-1H-naphtho[2′,1′:4,5]indeno[1,2-d][1,3]dioxolan-4(2H)-one]
pEC50 [1, 4]: 8.11
